Assay results: ChEMBL document CHEMBL3585306, “Anti-HIV diarylpyrimidine-quinolone hybrids and their mode of action” (Bioorg Med Chem, 2015)
pEC50, pIC50: −log10 of the molar value. Activity calls are given as the source filed them. No cut-off for these calls is given here.

Columns and labels:
[1] = test system: Human immunodeficiency virus 1; experiment: Antiviral activity against wild-type HIV1 3B infected in human MT4 cells assessed as protection of cells from virus-induced cytopathic after 5 days by MTT assay; assay type: functional, organism-based; settings: Human immunodeficiency virus 1, 3B, MT4, 120 h
[2] = Cytotoxicity against mock-infected human MT4 cells after 5 days by MTT assay; assay type: cell-based
[3] = test system: Human immunodeficiency virus 1; experiment: Antiviral activity against HIV1 harboring K103N/Y181C double mutant infected in human MT4 cells assessed as protection of cells from virus-induced cytopathic after 5 days by MTT assay; assay type: functional, organism-based; settings: Human immunodeficiency virus 1, MT4, 120 h
[4] = Selectivity index, ratio of CC50 for mock-infected human MT4 cells to EC50 for HIV1 3B infected in human MT4 cells; assay type: toxicity, cell-based; settings: mock-infected (CC50) and HIV1 3B infected (EC50)
[5] = target: Human immunodeficiency virus type 1 reverse transcriptase (Human immunodeficiency virus 1) (UniProt Q72547); experiment: Inhibition of wild-type HIV1 Reverse transcriptase p66/p51 assessed as fluorescence signal by time-of-addition assay
[6] = target: Human immunodeficiency virus type 1 reverse transcriptase (Human immunodeficiency virus 1, UniProt Q72547); experiment: Inhibition of wild-type HIV1 Reverse transcriptase p66/p51 assessed as relative fluorescence signal after 40 mins
[7] = target: Human immunodeficiency virus type 1 integrase (Human immunodeficiency virus 1, UniProt Q7ZJM1); experiment: Inhibition of HIV1 integrase
Sequence of Human immunodeficiency virus type 1 integrase (Q7ZJM1 whole entry): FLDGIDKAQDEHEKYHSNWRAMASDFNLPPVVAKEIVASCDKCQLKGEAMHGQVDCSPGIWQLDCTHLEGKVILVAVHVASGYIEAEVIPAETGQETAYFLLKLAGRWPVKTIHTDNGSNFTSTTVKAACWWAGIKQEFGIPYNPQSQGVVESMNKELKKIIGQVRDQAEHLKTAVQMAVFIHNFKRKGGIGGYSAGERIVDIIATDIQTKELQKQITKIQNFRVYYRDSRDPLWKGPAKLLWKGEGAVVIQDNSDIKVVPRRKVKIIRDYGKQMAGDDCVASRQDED

| Compound | pEC50 [1] | CC50 at 120 h [2] [µM] | pEC50 [3] | selectivity ratio [4] | inhibition [5] | pIC50 [6] | pIC50 [7] |
| --- | --- | --- | --- | --- | --- | --- | --- |
| Cc1cc(C#N)cc(C)c1Oc1nc(Nc2ccc(C#N)cc2)nc(N)c1Br [ETRAVIRINE] | 8.72 | 14.2 | 7.85 | – | – | – | – |
| CC(C)Cn1cc(C(=O)O)c(=O)c2ccc(Oc3ccnc(Nc4ccc(C#N)cc4)n3)cc21 | 5.94 | > 274 | < 3.56 | > 237 | Active | 4.85 | – |
| CCn1cc(C(=O)O)c(=O)c2ccc(Nc3ccnc(Nc4ccc(C#N)cc4)n3)cc21 | < 3.91 | 123 | < 3.91 | < 1 | – | 5.15 | – |
| Cc1ccnc2c1NC(=O)c1cccnc1N2C1CC1 [NEVIRAPINE] | 6.61 | > 15 | ≤ 4.96 | – | – | – | – |
| Cc1cn([C@H]2C[C@H](N=[N+]=[N-])[C@@H](CO)O2)c(=O)[nH]c1=O [ZIDOVUDINE] | 8.25 | > 94 | 8.28 | 16800 | – | – | – |
| CCn1cc(C(=O)O)c(=O)c2ccc(Oc3ccnc(Nc4ccc(C#N)cc4)n3)cc21 | 6.55 | 246 | < 3.61 | 880 | Active | 5.15 | – |
| O=C1Nc2ccc(Cl)cc2[C@@](C#CC2CC2)(C(F)(F)F)O1 [EFAVIRENZ] | – | > 6.5 | 6.85 | – | – | – | – |
| CCCn1cc(C(=O)O)c(=O)c2ccc(Oc3ccnc(Nc4ccc(C#N)cc4)n3)cc21 | ≤ 6.37 | 245 | < 3.61 | ≤ 569 | – | 5.04 | – |
| COc1cc2c(cc1Cc1cccc(Cl)c1F)c(=O)c(C(=O)O)cn2[C@H](CO)C(C)C | 8.51 | 4.6 | 8.66 | – | – | – | – |
| N#Cc1ccc(Nc2nccc(Oc3ccc4c(=O)c(C(=O)O)cn(C5CCCCC5)c4c3)n2)cc1 | < 5.49 | 3.22 | < 5.49 | < 1 | – | – | – |
| CCCCn1cc(C(=O)O)c(=O)c2ccc(Nc3ccnc(Nc4ccc(C#N)cc4)n3)cc21 | < 4.87 | 13.6 | < 4.87 | < 1 | – | – | – |
| CCCCn1cc(C(=O)O)c(=O)c2ccc(Oc3ccnc(Nc4ccc(C#N)cc4)n3)cc21 | 6.48 | ≥ 199 | < 3.70 | ≥ 604 | Active | 5.46 | 4.49 |
| N#Cc1ccc(Nc2nccc(Nc3ccc4c(=O)c(C(=O)O)cn(C5CCCCC5)c4c3)n2)cc1 | < 5.66 | 2.18 | < 5.66 | < 1 | – | – | – |
| CCCn1cc(C(=O)O)c(=O)c2ccc(Nc3ccnc(Nc4ccc(C#N)cc4)n3)cc21 | < 3.72 | 189 | < 3.72 | < 1 | – | – | – |
| N#Cc1ccc(Nc2nccc(Oc3ccc4c(=O)c(C(=O)O)cn(C5CCCC5)c4c3)n2)cc1 | 6.01 | 4.96 | < 5.30 | 5 | – | 5.22 | – |
| CC(C)n1cc(C(=O)O)c(=O)c2ccc(Nc3ccnc(Nc4ccc(C#N)cc4)n3)cc21 | < 4.96 | 10.9 | < 4.96 | < 1 | – | – | – |
| N#Cc1ccc(Nc2nccc(Oc3ccc4c(=O)c(C(=O)O)cn(C5CC5)c4c3)n2)cc1 | < 3.65 | ≥ 221 | < 3.65 | ≤ 1 | – | – | – |
| CCC(C)n1cc(C(=O)O)c(=O)c2ccc(Oc3ccnc(Nc4ccc(C#N)cc4)n3)cc21 (stereo unspecified) | < 3.56 | > 274 | < 3.56 | 1 | – | – | – |
| CC(C)n1cc(C(=O)O)c(=O)c2ccc(Oc3ccnc(Nc4ccc(C#N)cc4)n3)cc21 | < 3.55 | > 283 | < 3.55 | 1 | – | – | – |
